Measured values reported in patent EP0450065A1, “ANTIVIRAL AGENT” (priority 1988, dated 1990).
Like-named read-outs stand apart in the source and are kept apart here.

Assays:
[1] = test system: herpes simplex virus type 1 (KOS strain); assay: Control of CPE (cytopathic effect) manifestation in vero cells; assay type: cell-based; conditions: HSV-1 (KOS), Example 7; for Cytopathic effect [CPE] (3days) △CPE / Cytopathic effect [CPE] (5days) △CPE: difference from control
Method: Vero cells cultured and grown in a monolayer on microplates to test for cytopathic effect due to viral infection, with solutions of Compound A diluted to varying ratios and solutions of virus diluted to varying ratios added severally thereto in a volume of 0.1 ml, were cultured under the conditions of 5% CO₂ and 37°C and were examined for CPE manifestation under a microscope. The observation was continued for five to six days.
The degree of CPE brought about by viral infection was rated on the five-point scale, wherein 3 stands for CPE observed on not less than 75% of cultured cells, 2 for CPE observed on 50% of cultured cells, 1 for CPE observed on 25% of cultured cells, 0.5 for occurrence of one to two extremely minute DPE spots, and 0 for perfect absence of recognizable CPE. The CPE scores obtained at the four holes in each microplate were averaged and the difference of the average from the average obtained in the control (omitting the treatment with a chemical) was reported as ΔCPE.
(§1) Antiviral activity of Compound A and Compound B against herpes simplex virus type 1 (KOS strain) The test was carried out by following the procedure of Example 3.

[2] = test system: herpes simplex virus type 1 (KOS strain); assay: 50% Tissue culture infective dose (TCID50), Read-Munch method, negative logarithm of virus dilution; assay type: cell-based; design: key to Cytopathic effect [CPE] (5days) TCID50 / Cytopathic effect [CPE] (3days) TCID50: TCID50 as negative log of maximum virus dilution ratio; key to Cytopathic effect [CPE] (5days) △TCID50 / Cytopathic effect [CPE] (3days) △TCID50: difference from control TCID50, in negative log of virus dilution; conditions: HSV-1 (KOS), Example 7; for Cytopathic effect [CPE] (3days) △TCID50 / Cytopathic effect [CPE] (5days) △TCID50: difference from control
Method: The amount of virus infecting 50% of tissues (TCID₅₀) was determined by the Read-Munch method and expressed in negative logarithm of the maximum radio of dilution of virus. The difference of the amount thus determined from the amount found in the control (omitting the treatment with a chemical) was reported as ΔTCID₅₀. A sample whose ΔCPE's found on the last day of observation and on each of the days spent for the observation exceeded 1.0 was evaluated as effective.
as §1

[3] = test system: herpes simplex virus type 1 (KOS strain); assay: One-step growth of virus, plaque assay with vero cells; assay type: cell-based; conditions: for Intracellular virus Average / Intracellular virus Control ratio % / Intracellular virus Control ratio -logT/C: 24 hours
Method: Antiviral activity of Compound A and Compound B against one-step growth of herpes simplex virus type 1 (KOS strain) Cells grown in a monolayer, with a sample of a given compound diluted in a varying ratio added, were pretreated for 15 minutes. Then, the pretreated cells were infected with the herpes simplex virus type 1 (KOS strain) at an infecting ratio of 0.25 and left standing for 24 hours. At the end of the standing, the intracellular and extracellular amounts of virus were determined by the plaque assay with vero cells.

vero cells [4] = conditions: african green monkey
Method: Compound A and Compound B were severally dissolved in distilled water in a concentration of 5 mg/ml, to prepare master solutions. Each of the master solutions was suitably diluted with an Eagle's MEM culture medium containing 10% fetal bovine serum. A 0.2-ml portion of the resultant dilution product was placed on vero cells cultured in advance on a microplate and grown in a monolayer, cultured further thereon at 37°C for three to five days. Samples taken severally after three days'and five days'culture were placed under a microscope and tested for cytopathogenic effect brought about by a chemical agent.

vero cells [5] = conditions: control ratio on propagation of vero cells, 72hr
Method: Samples of the control group contained 0.1 ml of a culture solution (an Eagle's MEM culture medium containing 10% fetal bovine serum).
The test was conducted by using three culture tubes per group, culturing the cells in the tubes at 37°C for three days, and taking count of live cells by the dye-exclusion method.

Which “Cytopathic effect [CPE] (3days) Average” value ([1]; 100 μg/ml) does the source give for K₇PW₁₀Ti₂O₄₀.6H₂O [Compound B] here?
Its value is 0.

What about the “Cytopathic effect [CPE] (5days) Average” value ([1]; 100 μg/ml) of the same substance?
The value was 0.

What about the “Cytopathic effect [CPE] (3days) △CPE” value ([1]; 100 μg/ml) of the same substance?
The value was 2.0.

What about the “Cytopathic effect [CPE] (5days) △CPE” value ([1]; 100 μg/ml) of the same substance?
Its value is 3.0.

And the “Cytopathic effect [CPE] (3days) Average” value ([1]; 200 μg/ml)?
The value was 0.

And the “Cytopathic effect [CPE] (5days) Average” value ([1]; 200 μg/ml)?
The value was 0.

What about the “Cytopathic effect [CPE] (3days) △CPE” value ([1]; 200 μg/ml) of the same substance?
The value was 2.0.

What about the “Cytopathic effect [CPE] (5days) △CPE” value ([1]; 200 μg/ml) of the same substance?
Its value is 3.0.

And the “Cytopathic effect [CPE] (3days) TCID50” value ([2]; 100 μg/ml)?
The value was 3.5.

And the “Cytopathic effect [CPE] (5days) TCID50” value ([2]; 100 μg/ml)?
The value was 3.5.

What about the “Cytopathic effect [CPE] (3days) △TCID50” value ([2]; 100 μg/ml) of the same substance?
Its value is 2.0.

What about the “Cytopathic effect [CPE] (5days) △TCID50” value ([2]; 100 μg/ml) of the same substance?
The value was 2.5.

What about the “Cytopathic effect [CPE] (3days) TCID50” value ([2]; 200 μg/ml) of the same substance?
The value was 3.5.

And the “Cytopathic effect [CPE] (5days) TCID50” value ([2]; 200 μg/ml)?
The value was 3.5.

And the “Cytopathic effect [CPE] (3days) △TCID50” value ([2]; 200 μg/ml)?
Its value is 2.0.

And the “Cytopathic effect [CPE] (5days) △TCID50” value ([2]; 200 μg/ml)?
The value was 2.5.

And the “Intracellular virus Average” value ([3]; 50 μg/ml, extracellular virus)?
The value was 5.83×10^5 /dish.

And the “Intracellular virus Control ratio %” value ([3]; 50 μg/ml, extracellular virus)?
The value was 98.1%.

And the “Intracellular virus Control ratio -logT/C” value ([3]; 50 μg/ml, extracellular virus)?
The value was 1.711.

And the “Intracellular virus Average” value ([3]; 50 μg/ml)?
Its value is 6.00×10^5 /dish.

And the “Intracellular virus Control ratio %” value ([3]; 50 μg/ml)?
The value was 99.8%.

What about the “Intracellular virus Control ratio -logT/C” value ([3]; 50 μg/ml) of the same substance?
Its value is 2.831.

And the “Intracellular virus Average” value ([3]; 100 μg/ml, extracellular virus)?
The value was 2.10×10^5 /dish.

And the “Intracellular virus Control ratio %” value ([3]; 100 μg/ml, extracellular virus)?
Its value is 99.3%.

And the “Intracellular virus Control ratio -logT/C” value ([3]; 100 μg/ml, extracellular virus)?
Its value is 2.155.

And the “Intracellular virus Average” value ([3]; 100 μg/ml)?
The value was 1.12×10^5 /dish.

And the “Intracellular virus Control ratio -logT/C” value ([3]; 100 μg/ml)?
Its value is 3.560.

And the “Intracellular virus Control ratio %” value ([3]; 100 μg/ml, 1440 min)?
Its value is >99.9%.

What about the “Intracellular virus Average” value ([3]; 200 μg/ml, extracellular virus) of the same substance?
The value was 4.95×10^4 /dish.

And the “Intracellular virus Control ratio %” value ([3]; 200 μg/ml, extracellular virus)?
The value was 99.8%.

What about the “Intracellular virus Control ratio -logT/C” value ([3]; 200 μg/ml, extracellular virus) of the same substance?
Its value is 2.783.

And the “Intracellular virus Average” value ([3]; 200 μg/ml)?
Its value is 1.07×10^3 /dish.

What about the “Intracellular virus Control ratio -logT/C” value ([3]; 200 μg/ml) of the same substance?
Its value is 5.580.

What about the “Intracellular virus Control ratio %” value ([3]; 200 μg/ml, 1440 min) of the same substance?
Its value is >99.9%.

And the “control of the intracellular and extracellular viruses in the one-step growth” value ([3]; concentration not given, 1440 min)?
The value was “not less than 99.9%”.

And the “maximum nontoxic doses (MNTD)” value (vero cells [4])?
Its value is > 200 µg/mL.

What about the “Cellular toxity (3 days) Maximum nontoxic does” value (vero cells [4]; 72 h) of the same substance?
Its value is >200 µg/mL.

What about the “Cellular toxity (5 days) Maximum nontoxic does” value (vero cells [4]; 120 h) of the same substance?
The value was >200 µg/mL.

What about the “Ratio (%)” value (vero cells [5]; 100 μg/ml) of the same substance?
Its value is “absolutely no effect”.

And the “Ratio (%)” value (vero cells [5]; 200 μg/ml)?
Its value is “absolutely no effect”.
